Measurements taken from patent publication US11040223B2, “Compositions and methods related to xCT peptides” (AGILVAX, INC., priority 2015, dated 2021).

How the values were obtained:
[1] = tested on: HCC-1806 derived tumorspheres; test: FACS binding of immune sera from VLP immunized mice to tumorspheres; type: cell-based, human; conditions: sera (1:50) of mice immunized with VLPs 3 times at 2 week intervals; passage 2 HCC-1806 tumorspheres
Procedure: FIG. 1A-1B. xCT VLPs elicit antibodies that bind to tumorspheres. Immune sera (1:50) from xCT or control (MS2) VLP immunized mice were incubated with HCC-1806 derived tumorspheres. A FITC conjugated anti mouse IgG was used to detect sera antibodies bound to the cells. (A) FACS analysis of the percentage of tumorsphere cells that bound to the immune sera. As a positive control for xCT binding, we used a commercially available xCT polyclonal antibody. (B) Immunofluorescence analysis showing antibody binding to a tumorsphere from an xCT ECD 6 immunized mouse. Cell nuclei are stained with DAPI.
To determine if xCT VLP vaccination generated antibodies that could bind to breast cancer stem cells, sera from animals immunized with VLPs 3 times at 2 week intervals were incubated with passage 2 tumorspheres from the human cell line HCC-1806.

TUBO cells = test: MTT in vitro cytotoxicity on TUBO cells; type: cell-based, mouse; conditions: 72 hours
Procedure: (§1) A MTT test was performed on TUBO cells and tumorspheres that had either been treated or not with scalar doses of xCT inhibitor SASP. […] On the contrary, xCT overexpression increases colony generating ability, as confirmed by the higher number of colonies generated in soft agar by NIH/3T3 and HEK-293 cells transfected with xCT when compared with the corresponding cells transfected with empty plasmids.
(§2) Twenty-four hours after TUBO cells and tumorspheres seeding in 96-well plates, scalar doses of doxorubicin or sulfasalazine (SASP; Sigma-Aldrich) were added and incubated at 37° C. for 72 hours. Cytotoxicity was evaluated with MTT using the Cell Proliferation Kit I (Roche Diagnostics).

[2] = tested on: TUBO-derived tumorspheres; test: Growth of s.c. tumors from TUBO-derived tumorspheres in vaccinated BALB/c mice; conditions: treated at 2 mm mean diameter, repeated the week later
From the text: TUBO-derived tumorspheres were s.c. implanted into BALB/c mice that were vaccinated when tumors reached 2 or 4 mm mean diameter to evaluate whether xCT immune-targeting hinders breast cancer growth (FIG. 6A-6D).
Female 6- to 8-week-old wild-type (Charles River Laboratories) and Ig μ-chain gene knocked out (BALB-μIgKO) BALB/c mice were maintained at the Molecular Biotechnology Center, University of Torin, and treated in accordance with the University Ethical Committee and European guidelines under Directive 2010/63. Vaccination, performed either before or after tumor challenge, consisted of two intramuscular electroporations at 2 weeks interval, of pVAX1 or pVAX1-xCT plasmids.
Primary s.c. tumors were induced by injecting 1×10^4 TUBO or 4T1 tumorsphere-derived cells.

[3] = tested on: mouse tubo-derived tumorspheres; test: Lung metastases in VLP immunized mice injected i.v. with tumorspheres; type: in vivo; conditions: 5×10^4 tumorspheres i.v., lungs 20 days later, vs MS2 control VLPs
Procedure: FIG. 2. […] Mice immunized with xCT or MS2 control VLPs were injected (i.v) with 5×10^4 mouse tubo-derived tumorspheres. 20 days later, animals were euthanized and lungs were removed, section and the number of metastatic foci were measured. The number of mice were MS2 (n=2), xCT ECD3 (n=5), xCT ECD5 (n=5) and xCT ECD6 (n=4). Metastatic lesions were counted from two lung sections per animal. Data presented is the average number of lesions per slide. Two-tailed student t test was used to determine significance. ** indicates a p-value <0.01.
Inhibition of xCT function by a […] vaccine inhibits the number of metastatic lesions in the lung by 40% in a well characterized breast cancer stem cell transplantation model.

[4] = tested on: TUBO-derived tumorspheres; test: MTT in vitro cytotoxicity on tumorspheres; type: cell-based; conditions: Mus musculus, 72 hours, read-out: IC50, tumorsphere viability (MTT)
Procedure: as §1, §2

tumorspheres = test: Tumorsphere generation after SASP or xCT siRNAs; type: cell-based, mouse; conditions: spheres counted 5 days later (SASP)
Procedure: FIG. 4A-4H. xCT regulates CSC self-renewal and the intracellular redox balance. A and B, MTT assay of the cytotoxic effect exerted by scalar doses of SASP or by anti-xCT siRNAs on TUBO (A) and tumorspheres (B). (C) Sphere generation ability relative to untreated cells of tumorspheres incubated with SASP. (D) Sphere generation ability of tumorspheres incubated with siRNAs to xCT, scrambled siRNAs, or not at all shown as tumorsphere number/10^3 plated cells. (E) and (F) FACS analysis of xCT and CSC marker expression in spheres 24 hours after transfection with siRNAs to xCT or scrambled siRNAs. (E) histograms show xCT expression; open histograms show the background of negative control IgG stained cells from one representative experiment. (F) relative expression (%) of xCT^+, Sca-1^+, and CD44^high/CD24^low cells in tumorsphere-derived cells transfected with siRNAs to xCT (black bars) compared with cells transfected with scrambled siRNAs (dashed line). G and H, GSH (G) and ROS (H) levels in TUBO cells and their derived tumorspheres after either seeding in normal conditions, transfection with siRNAs to xCT, or scrambled siRNAs over three independent experiments. *, P<0.05; **, P<0.01;***, P<0.001, Student t test. […]
Dissociated tumorspheres were cultured with scalar doses of SASP or its diluent DMSO (Sigma-Aldrich), and the total number of tumorspheres/well was counted 5 days later.

xCT = molecular target: T1, xCT (Homo sapiens, UniProt Q9UPY5); conditions: animal models; cited from earlier work
T1 sequence (Q9UPY5 1-501): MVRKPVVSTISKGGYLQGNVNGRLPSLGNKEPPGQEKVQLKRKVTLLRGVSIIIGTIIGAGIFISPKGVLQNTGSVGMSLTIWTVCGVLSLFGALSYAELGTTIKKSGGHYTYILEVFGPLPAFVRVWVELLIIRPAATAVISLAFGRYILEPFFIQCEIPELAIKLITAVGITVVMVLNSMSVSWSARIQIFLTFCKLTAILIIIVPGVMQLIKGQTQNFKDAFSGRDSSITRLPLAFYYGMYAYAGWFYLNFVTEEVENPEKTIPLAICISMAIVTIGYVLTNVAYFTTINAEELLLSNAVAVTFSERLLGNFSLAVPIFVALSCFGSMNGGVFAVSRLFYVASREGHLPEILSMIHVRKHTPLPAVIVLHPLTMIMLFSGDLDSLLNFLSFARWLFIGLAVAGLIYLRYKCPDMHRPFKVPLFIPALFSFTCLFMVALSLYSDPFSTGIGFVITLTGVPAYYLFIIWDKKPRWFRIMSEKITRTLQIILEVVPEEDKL
T1 sequence (P08195 1-529 partner): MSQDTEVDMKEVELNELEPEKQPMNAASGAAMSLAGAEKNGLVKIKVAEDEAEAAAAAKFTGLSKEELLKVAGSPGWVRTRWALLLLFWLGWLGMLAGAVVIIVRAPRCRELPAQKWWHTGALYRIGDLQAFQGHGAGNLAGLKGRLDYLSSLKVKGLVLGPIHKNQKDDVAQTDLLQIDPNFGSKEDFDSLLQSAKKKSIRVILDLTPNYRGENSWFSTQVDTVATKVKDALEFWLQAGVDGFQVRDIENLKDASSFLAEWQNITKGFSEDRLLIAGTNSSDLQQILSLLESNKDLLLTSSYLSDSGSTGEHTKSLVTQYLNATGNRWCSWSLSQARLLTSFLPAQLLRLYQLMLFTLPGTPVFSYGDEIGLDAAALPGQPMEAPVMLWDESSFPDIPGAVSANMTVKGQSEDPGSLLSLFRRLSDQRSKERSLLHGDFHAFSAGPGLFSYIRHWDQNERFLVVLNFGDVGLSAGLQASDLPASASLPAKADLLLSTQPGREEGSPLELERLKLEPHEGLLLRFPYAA

[5] = physiological conditions; cited from earlier work
[6] = in vivo; cited from earlier work

xCT ECD3: MS2 VLP displaying extracellular domain 3 of human xCT in the AB loop of the coat protein (MQLIKGQTQNFKDAFSGRDSSITR; displayed on MS2 VLP coat protein AB loop; listed as Homo sapiens)
antibody response: immune sera antibodies binding to tumorspheres by FACS [1]: generated antibodies against xCT that were able to bind to human breast cancer cells as well as a commercially available xCT antibody

COc1cccc2c1C(=O)c1c(O)c3c(c(O)c1C2=O)C[C@@](O)(C(=O)CO)C[C@@H]3O[C@H]1C[C@H](N)[C@H](O)[C@H](C)O1 [doxorubicin]
sensitivity of TUBO cells compared with tumorspheres (MTT) (TUBO cells; scalar doses): higher sensitivity | mice with tumor regression [2]: 25%

xCT ECD6: MS2 VLP displaying extracellular domain 6 of human xCT in the AB loop of the coat protein (YSDPFS; displayed on MS2 VLP coat protein AB loop; listed as Homo sapiens)
reduction of the number of metastases in the lung [3]: ~60% | antibody response: immune sera antibodies binding to tumorspheres by FACS [1]: generated antibodies against xCT that were able to bind to human breast cancer cells as well as a commercially available xCT antibody

O=C(O)c1cc(/N=N/c2ccc(S(=O)(=O)Nc3ccccn3)cc2)ccc1O [SASP, sulfasalazine]
IC50 [4]: 51.6 ± 3.5 µM | tumorsphere generation (tumorspheres): impaired tumorsphere generation | metastatic foci (xCT): significant decreases in metastatic foci | stability and solubility [5]: labile and insoluble under physiological conditions | IC50 (TUBO cells; Mus musculus, TUBO cells, read-out: IC50, cell viability (MTT)): 126 ± 25.7 µM | bioavailability [6]: low bioavailability
